Test results reported in patent publication US11458127B2, “Methods of treating brain tumors using combination therapy” (SERVIER PHARMACEUTICALS LLC, priority 2017, dated 2022).
Read-outs that look alike come from different tables or passages of the source.

Legend:
mutant IDH1 (mIDH1) = conditions: cited from earlier work
mIDH1-driven gliomas = conditions: some model systems; D. Rohle et al. 2013; cited from earlier work
mIDH1 cells = conditions: in vitro; R. J. Molenaar et al. 2015; cited from earlier work
mutant IDH2 (mIDH2) = conditions: cited from earlier work
2HG production = experiment: animal or person; conditions: po, read-out: Inhibition of 2HG production within the brain tumors
Experimental: Ivosidenib was orally dosed at 150 mg/kg, twice daily, for Groups 3-5.

mutant IDH1 proteins [1] = conditions: cellular assays; cited from earlier work
mutant IDH1 proteins [2] = conditions: biochemical assays; cited from earlier work

## Cc1ccccc1C(C(=O)NC1CCCCC1)N(C(=O)Cn1ccnc1C)c1cccc(F)c1 (stereo not shown) [AGI-5198]
Mutant IDH1 (mIDH1)
  Inhibition of mutant IDH1: inhibit mutant IDH1 (mIDH1)
mIDH1-driven gliomas
  Effect on growth of mIDH1-driven gliomas: can repress growth of mIDH1-driven gliomas in some model systems
mIDH1 cells
  Sensitivity of treated mIDH1 cells to radiation therapy: desensitized to radiation therapy
Mutant IDH2 (mIDH2)
  Inhibition of mutant IDH2: not mutant IDH2 (mIDH2)

## N#Cc1ccnc(N2C(=O)CC[C@H]2C(=O)N(c2cncc(F)c2)[C@H](C(=O)NC2CC(F)(F)C2)c2ccccc2Cl)c1 [Ivosidenib, (S)—N—((S)-1-(2-Chlorophenyl)-2-(3,3-difluorocyclobutylamino)-2-oxoethyl)-1-(4-cyanopyridin-2-yl)-N-(5-fluoropyridin-3-yl)-5-oxopyrrolidine-2-carboxamide]
2HG production
  inhibition at 150 mg/kg: > 98%
Mutant IDH1 proteins [1]
  Activity on mutant IDH1 proteins: inhibitor of mutant IDH1 proteins
Mutant IDH1 proteins [2]
  Activity on mutant IDH1 proteins: inhibitor of mutant IDH1 proteins
